What all share (experiment): NCI tumour cell line growth inhibition, 48 h
For assay [1], the system named is CAKI-1 renal.
Assay [2] deals with SF-268 CNS.
For assay [3], the system named is MDA-N.
Assay [4] relates to HCC-2998 colon.
For assay [5], the system named is SF-539 CNS.
Assay [6] has as its system SK-OV-3 ovarian.
The test system of assay [7] is NCI-H460 lung.
In assay [8] the test system is NCI-H522 lung.
Assay [9] deals with SNB-19 CNS.

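Results reflect a 48-hour exposure of cells in 96-well plates to compound at five concentrations. Definition used: TGI = concentration required for complete inhibition of growth.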

On to `CC(=O)Nc1ccc(Nc2cc(=O)n(C)c(=O)[nH]2)cc1`, for which the TGI in assay [1], in assay [2], in [3], in [4], in assay [5] and in [6] was > 100 µM throughout. Besides, the TGI in assay [7], in [8] and in [9] was > 100 µM throughout.

Regarding `O=[N+]([O-])c1ccc(Cl)cc1-n1nc(-c2ccccc2)cc1-c1ccccc1`, the TGI in [1], in assay [2], in assay [3], in assay [4], in assay [5] and in assay [6] was > 100 µM each time. The TGI in assay [7], in assay [8] and in assay [9] was > 100 µM in each case.

For the compound `COC(=O)C1Cc2ccc(C)cc2C1=O` (stereo not given), the TGI in assay [1], in [2], in assay [3], in assay [4], in [5] and in assay [6] was > 100 µM throughout. Moreover, the TGI in assay [7], in [8] and in [9] was > 100 µM throughout.

For the compound `O=C(O)c1cccc(S(=O)(=O)NN2C(=O)CSC2c2ccccc2)c1` (stereo not given), the TGI in [1], in [2], in assay [3], in assay [4], in assay [5] and in assay [6] was > 100 µM throughout. Besides, the TGI in assay [7], in [8] and in [9] was > 100 µM in each case.

Consider `CCOC(=O)c1c(O)[nH]c(=O)c(CC)c1C`, for which the TGI in assay [1], in assay [2], in assay [3], in assay [4], in assay [5] and in assay [6] was > 100 µM each time. Besides, the TGI in assay [7], in assay [8] and in [9] was > 100 µM each time.

On to `CC(=O)OC1/C(=C/c2ccc([N+](=O)[O-])cc2)C[C@H]2[C@@H]3CC=C4C[C@@H](OC(C)=O)CC[C@]4(C)[C@H]3CC[C@]12C` (stereo not given in full), for which the TGI in assay [1], in assay [2], in assay [3], in assay [4], in [5] and in [6] was > 100 µM each time. The TGI in assay [7], in assay [8] and in [9] was > 100 µM in each case.

As to `C[C@H](CCC1=NCCN1)[C@H]1CC[C@H]2[C@@H]3[C@H](O)C[C@@H]4C[C@H](O)CC[C@]4(C)[C@H]3CC[C@]12C`, the TGI was determined as 40.9 µM in [1]; 26 µM in assay [2]; 32.7 µM in [3]; 28.5 µM in [4]; 25.5 µM in assay [5]; 33.1 µM in assay [6]. Besides, the values for the TGI in assay [7], in [8] and in assay [9] were 24.3 µM, 28.5 µM and 26.1 µM, respectively.

In the case of `CC(=O)Oc1ccc(N2C(=O)C3c4[nH]c5ccccc5c4C4CCC(C(C)(C)C)CC4C3C2=O)cc1` (stereo not given), the TGI in [1] stood at 16 µM; in assay [2], 11 µM; in assay [3] it was 14.1 µM; in [4], 5.14 µM; in assay [5], 18.3 µM; in assay [6], 24 µM. Further, the TGI in assay [7] is 5.83 µM; in [8] it was 9.93 µM; in assay [9], 9.84 µM.

For `CN1CCN(c2nc3ccccc3nc2C(=O)c2ccc(Cl)cc2)CC1`, the TGI was > 100 µM in assay [1]; > 100 µM in [2]; > 100 µM in [3]; 99.7 µM in assay [4]; > 100 µM in [5]; > 100 µM in [6]. Also, the TGI is 80.2 µM in assay [7], > 100 µM in assay [8] and > 100 µM in [9].

With `CC(=O)N1c2ccccc2C(C)(C)OC1C(Cl)(Cl)Cl` (stereo not given), the TGI was > 100 µM in [1]; > 100 µM in assay [2]; 83.1 µM in [3]; 74.2 µM in assay [4]; > 100 µM in [5]; > 100 µM in assay [6]. Besides, the TGI is > 100 µM in assay [7], 69.3 µM in [8] and > 100 µM in assay [9].

As for `O/N=c1/ccn(O)c2ccccc12`, the TGI was found to be 5.99 µM in [1]; 5.74 µM in assay [2]; 17.5 µM in assay [3]; 0.998 µM in assay [4]; 2.41 µM in assay [5]; 3.26 µM in assay [6]. The figures for the TGI in assay [7], in [8] and in assay [9] were 3.67 µM, 3.23 µM and 14.1 µM, respectively.

Consider `Cn1c(=O)n2n(c1=O)Cc1cccc3cccc(c13)C2`, for which the TGI in [1], in assay [2], in assay [3], in assay [4], in assay [5] and in assay [6] was > 100 µM in each case. Moreover, the TGI in assay [7], in assay [8] and in assay [9] was > 100 µM each time.

With `CSc1c(C(=O)Nc2ccc(C)cc2)c(N)nn1-c1ccccc1`, the TGI is 49.9 µM in [1]; > 100 µM in [2]; > 100 µM in assay [3]; > 100 µM in [4]; 92.1 µM in assay [5]; > 100 µM in assay [6]. In addition, the TGI was 42.9 µM in [7], > 100 µM in assay [8] and > 100 µM in assay [9].

Consider `CC12CC3CC/C(=N\O)C(C1)C3(N1CCOCC1)C/C2=N/O` (stereo not given), for which the TGI in assay [1], in assay [2], in assay [3], in [4], in assay [5] and in assay [6] was > 100 µM each time. Also, the TGI in assay [7], in assay [8] and in assay [9] was > 100 µM in each case.

With `COc1cc2c(cc1OC)C1Cc3ccccc3CCN1CC2` (stereo not given), the TGI in assay [1], in assay [2], in assay [3], in [4], in assay [5] and in assay [6] was > 100 µM throughout. Moreover, the TGI in assay [7], in assay [8] and in [9] was > 100 µM each time.

(Values after PubChem BioAssay (NCI).)
